Test results as given in ChEMBL document CHEMBL3046206, “Synthesis of new 4-(2,5-dimethylpyrrol-1-yl)/4-pyrrol-1-yl benzoic acid hydrazide analogs and some derived oxadiazole, triazole and pyrrole ring systems: a novel class of potential antibacterial, antifungal and antitubercular agents” (Med Chem Res, 2013).
≈ marks a conversion by molar mass, not a printed value.

How the values were obtained:
Candida tropicalis = assay: Antifungal activity against Candida tropicalis after 18 hr by broth microdilution technique; format: functional
Saccharomyces cerevisiae = assay: Antifungal activity against Saccharomyces cerevisiae after 18 hr by broth microdilution technique; format: functional
Bacillus subtilis = assay: Antibacterial activity against Bacillus subtilis after 18 hr by broth microdilution technique; format: functional
Escherichia coli = assay: Antibacterial activity against Escherichia coli after 18 hr by broth microdilution technique; format: functional
Pseudomonas aeruginosa = assay: Antibacterial activity against Pseudomonas aeruginosa after 18 hr by broth microdilution technique; format: functional
Aspergillus niger = assay: Antifungal activity against Aspergillus niger after 18 hr by broth microdilution technique; format: functional
Staphylococcus aureus = assay: Antibacterial activity against Staphylococcus aureus after 18 hr by broth microdilution technique; format: functional
[1] = tested on: Mycobacterium tuberculosis; assay: Antimycobacterial activity against Mycobacterium tuberculosis H37Rv after 21 days by broth dilution method; format: functional; details: 504 h
Vero = assay: Cytotoxicity against Chlorocebus aethiops (African green monkey) Vero cells after 72 hr by MTT assay; format: cell-based; details: Chlorocebus sabaeus
Klebsiella pneumoniae = assay: Antibacterial activity against Klebsiella pneumoniae after 18 hr by broth microdilution technique; format: functional
Enterococcus faecalis = assay: Antibacterial activity against Enterococcus faecalis after 18 hr by broth microdilution technique; format: functional
A549 = assay: Cytotoxicity against Homo sapiens (human) A549 cells after 72 hr by MTT assay; format: cell-based; details: A549, 72 h

SMILES | MIC (Candida tropicalis) | MIC (Saccharomyces cerevisiae) | MIC (Bacillus subtilis) | MIC (Escherichia coli) | MIC (Pseudomonas aeruginosa) | MIC (Aspergillus niger) | MIC (Staphylococcus aureus) | MIC [1] | IC50 (Vero) | MIC (Klebsiella pneumoniae) | MIC (Enterococcus faecalis) | IC50 (A549)
CC(=O)N1N=C(c2ccc(-n3c(C)ccc3C)cc2)OC1c1ccccc1Cl (centres undefined) | 8 µg/mL (≈ 20.3 µM) | 31.2 µg/mL (≈ 79.3 µM) | 8 µg/mL (≈ 20.3 µM) | 500 µg/mL (≈ 1270 µM) | 500 µg/mL (≈ 1270 µM) | 16 µg/mL (≈ 40.6 µM) | 16 µg/mL (≈ 40.6 µM) | 8 µg/mL (≈ 20.3 µM) | 201 µM | 31.2 µg/mL (≈ 79.3 µM) | 31.2 µg/mL (≈ 79.3 µM) | 206 µM
O=C(NNC(=O)c1ccc(-n2cccc2)cc1)c1ccc(Cl)cc1 | 8 µg/mL (≈ 23.5 µM) | 31.2 µg/mL (≈ 92 µM) | 16 µg/mL (≈ 47.1 µM) | 16 µg/mL (≈ 47.1 µM) | 16 µg/mL (≈ 47.1 µM) | 31.2 µg/mL (≈ 92 µM) | 62.5 µg/mL (≈ 184 µM) | 8 µg/mL (≈ 23.5 µM) | 179 µM | > 500 µg/mL | 31.2 µg/mL (≈ 92 µM) | 185 µM
CC(=O)N1N=C(c2ccc(-n3c(C)ccc3C)cc2)OC1c1c(Cl)cccc1Cl (centres undefined) | 4 µg/mL (≈ 9.34 µM) | 16 µg/mL (≈ 37.4 µM) | 4 µg/mL (≈ 9.34 µM) | 16 µg/mL (≈ 37.4 µM) | 8 µg/mL (≈ 18.7 µM) | 4 µg/mL (≈ 9.34 µM) | 2 µg/mL (≈ 4.67 µM) | 2 µg/mL (≈ 4.67 µM) | 220 µM | 62.5 µg/mL (≈ 146 µM) | 2 µg/mL (≈ 4.67 µM) | 224 µM
Cc1ccc(C)n1-c1ccc(C(=O)N/N=C/c2ccccc2Cl)cc1 | 8 µg/mL (≈ 22.7 µM) | 31.2 µg/mL (≈ 88.8 µM) | 8 µg/mL (≈ 22.7 µM) | 500 µg/mL (≈ 1420 µM) | 500 µg/mL (≈ 1420 µM) | 16 µg/mL (≈ 45.5 µM) | 16 µg/mL (≈ 45.5 µM) | 16 µg/mL (≈ 45.5 µM) | – | 62.5 µg/mL (≈ 178 µM) | 31.2 µg/mL (≈ 88.8 µM) | –
Cc1ccc(C)n1-c1ccc(C(=O)N/N=C/c2ccccc2)cc1 | 31.2 µg/mL (≈ 98.5 µM) | 62.5 µg/mL (≈ 197 µM) | 31.2 µg/mL (≈ 98.5 µM) | 62.5 µg/mL (≈ 197 µM) | 62.5 µg/mL (≈ 197 µM) | 31.2 µg/mL (≈ 98.5 µM) | 31.2 µg/mL (≈ 98.5 µM) | 31.2 µg/mL (≈ 98.5 µM) | – | 62.5 µg/mL (≈ 197 µM) | 62.5 µg/mL (≈ 197 µM) | –
Cc1ccc(C)n1-c1ccc(C(=O)N/N=C/c2ccc(Br)cc2)cc1 | 8 µg/mL (≈ 20.2 µM) | 31.2 µg/mL (≈ 78.9 µM) | 16 µg/mL (≈ 40.4 µM) | 500 µg/mL (≈ 1260 µM) | > 500 µg/mL | 16 µg/mL (≈ 40.4 µM) | 16 µg/mL (≈ 40.4 µM) | 16 µg/mL (≈ 40.4 µM) | – | 500 µg/mL (≈ 1260 µM) | 31.2 µg/mL (≈ 78.9 µM) | –
Cc1ccc(C)n1-c1ccc(C(=O)N/N=C/c2ccc(O)cc2)cc1 | 16 µg/mL (≈ 48 µM) | 16 µg/mL (≈ 48 µM) | 31.2 µg/mL (≈ 93.7 µM) | 500 µg/mL (≈ 1500 µM) | 500 µg/mL (≈ 1500 µM) | 16 µg/mL (≈ 48 µM) | 16 µg/mL (≈ 48 µM) | 31.2 µg/mL (≈ 93.7 µM) | – | 62.5 µg/mL (≈ 187 µM) | 16 µg/mL (≈ 48 µM) | –
Cc1ccc(C)n1-c1ccc(C(=O)NN)cc1 | 62.5 µg/mL (≈ 273 µM) | 62.5 µg/mL (≈ 273 µM) | 62.5 µg/mL (≈ 273 µM) | 500 µg/mL (≈ 2180 µM) | 500 µg/mL (≈ 2180 µM) | 62.5 µg/mL (≈ 273 µM) | 62.5 µg/mL (≈ 273 µM) | 62.5 µg/mL (≈ 273 µM) | – | 62.5 µg/mL (≈ 273 µM) | 62.5 µg/mL (≈ 273 µM) | –
C/C(=N/NC(=O)c1ccc(-n2c(C)ccc2C)cc1)c1ccccc1 | 62.5 µg/mL (≈ 189 µM) | 62.5 µg/mL (≈ 189 µM) | 16 µg/mL (≈ 48.3 µM) | 500 µg/mL (≈ 1510 µM) | 500 µg/mL (≈ 1510 µM) | 62.5 µg/mL (≈ 189 µM) | 62.5 µg/mL (≈ 189 µM) | 31.2 µg/mL (≈ 94.3 µM) | – | 500 µg/mL (≈ 1510 µM) | 31.2 µg/mL (≈ 94.3 µM) | –
NNC(=O)c1ccncc1 [ISONIAZID] | – | – | – | – | – | – | – | 0.25 µg/mL (≈ 1.82 µM) | > 450 µM | – | – | > 450 µM
OC(Cn1cncn1)(Cn1cncn1)c1ccc(F)cc1F [FLUCONAZOLE] | ≤ 1 µg/mL | ≤ 1 µg/mL | – | – | – | ≤ 1 µg/mL | – | – | – | – | – | –
Cc1ccc(C)n1-c1ccc(C(=O)N/N=C/c2ccccc2[N+](=O)[O-])cc1 | 16 µg/mL (≈ 44.2 µM) | 31.2 µg/mL (≈ 86.2 µM) | 31.2 µg/mL (≈ 86.2 µM) | > 500 µg/mL | > 500 µg/mL | 16 µg/mL (≈ 44.2 µM) | 62.5 µg/mL (≈ 172 µM) | 62.5 µg/mL (≈ 172 µM) | – | > 500 µg/mL | 31.2 µg/mL (≈ 86.2 µM) | –
O=C(O)c1cn(C2CC2)c2cc(N3CCNCC3)c(F)cc2c1=O [CIPROFLOXACIN] | – | – | ≤ 1 µg/mL | ≤ 1 µg/mL | > 5 µg/mL | – | < 5 µg/mL | – | – | ≤ 1 µg/mL | < 5 µg/mL | –
CCn1cc(C(=O)O)c(=O)c2cc(F)c(N3CCNCC3)cc21 [NORFLOXACIN] | – | – | ≤ 1 µg/mL | ≤ 1 µg/mL | > 5 µg/mL | – | < 5 µg/mL | – | – | ≤ 1 µg/mL | < 5 µg/mL | –
CC(C)=NNC(=O)c1ccc(-n2c(C)ccc2C)cc1 | 31.2 µg/mL (≈ 116 µM) | 62.5 µg/mL (≈ 232 µM) | 16 µg/mL (≈ 59.4 µM) | 500 µg/mL (≈ 1860 µM) | 500 µg/mL (≈ 1860 µM) | 62.5 µg/mL (≈ 232 µM) | 31.2 µg/mL (≈ 116 µM) | 31.2 µg/mL (≈ 116 µM) | – | 500 µg/mL (≈ 1860 µM) | 31.2 µg/mL (≈ 116 µM) | –
